Series [1] concerns the target CYP1A2 (Homo sapiens (Human), UniProt P05177). It counts as in vitro ADME. The following applies: microsomes. How it is done: (§1) Experimental purposes: To test the inhibitory effect of test compound on the activity of human liver microsomal cytochrome P450 isoenzymes (CYP1A2 and CYP3A4) (Corning, Co., Ltd.).
(§2) Experimental operation: Firstly, the test compound (10 mM) was subjected to gradient dilution to prepare a working solution (100×final concentration), and the concentration of the working solution was: 5, 1.5, 0.5, 0.15, 0.05, 0.015 and 0.005 mM, respectively, and the working solution of each positive inhibitor of P450 isoenzyme (CYP1A2 and CYP3A4) and its specific substrate mixture (5 in 1) were prepared; and then the human liver microsomes frozen in the −80° C. refrigerator were thawed on ice, and all the human liver microsomes were dissolved, diluted with PB, and a certain concentration of working solution (0.253 mg/mL) was prepared; 20 μL of substrate mixture was added to the reaction plate (20 μL of PB was added to the blank well), while 158 μL of human liver microsomal working solution was added to the reaction plate, and the reaction plate was placed on ice for later use; at this time, 2 μL of various concentrations of the test compound (N=1) and specific inhibitor (N=2) were added to the corresponding well, and the corresponding organic solvent was added to the non-inhibitor (test compound or positive inhibitor) group as a control group sample (a ratio of DMSO:MeOH in the test compound control sample was 1:1, a ratio of DMSO:MeOH in the positive control sample was 1:9); after pre-incubation in a water bath at 37° C. for 10 min, 20 μL of coenzyme factor (NADPH) solution was added to the reaction plate, and incubated in a water bath at 37° C. for 10 min; and 400 μL of cold acetonitrile solution (internal standard was 200 ng/mL tolbutamide and labetalol) was added to terminate the reaction; the reaction plate was placed on a shaker and shaked for 10 minutes; and then centrifuged at 4,000 rpm for 20 minutes; 200 μL of the supernatant was taken and added to 100 μL of water for sample dilution; finally the plate was sealed, shaked and shaked well, for LC/MS/MS detection.

Series [2] concerns the target CYP3A4 (Homo sapiens (Human), UniProt P08684). Description: Cytochrome P450 isoenzyme inhibition, human liver microsomes. The format is in vitro ADME. On the procedure:
as §1, §2

In series [3] the target is ERα (Homo sapiens (Human), UniProt P03372). Briefly: Degradation experiment of MCF-7 ERα (ELISA). It counts as cell-based. The following applies: MCF-7 cell line, 4 hours incubation, total ERα ELISA; read-out: IC50 value of promoting ERα degradation. An excerpt: (2) Degradation Experiment of MCF-7 ERα Experimental Materials:
Phenol red-free MEM culture medium was purchased from Wisent, fetal bovine serum was purchased from Biosera, and Human Total ERα/NR3A1 ELISA kit was purchased from R&D. MCF-7 cell line was purchased from Cell Bank of Type Culture Collection of Chinese Academy of Sciences. Nivo5 multi-label analyzer (PerkinElmer).
MCF-7 cells were resuspended in culture medium (phenol red-free MEM+5% charcoal/dextran-treated fetal bovine serum+1% penicillin-streptomycin double antibody solution), and seeded in a clear 96-well cell culture plate with 80 μL per well containing 20,000 cells, and the cell culture plate was incubated overnight in a carbon dioxide incubator;
ELISA plate was coated with strips, human total estrogen receptor a capture antibody was diluted with 1×PBS with a final concentration of 1 μg/mL, and 100 μL of mixture was added to each well, and incubated overnight at 25° C.
Cell administration: The test compound was diluted to the 8th concentration with a multi-channel pipette, and the compound concentration was 20 μM and 4 μM, and then diluted to the 8th concentration of 0.256 nM in turn, and a double-duplicate experiment was set-up. 78 μL of culture medium was added to the middle plate, then 2 μL of gradient dilution compound per well was transferred to the middle plate according to the corresponding position, and 20 μL of the mixture per well was mixed evenly and transferred to the cell plate, and the final concentration of DMSO was 0.5%, and the mixture was incubated at 37° C. for 4 hours;
preparation of standard curve solution: 110 ng/mL of standard curve storage solution was 6-fold diluted with buffer (1×PBS containing 1 mM EDTA, 0.5% Triton X-100, pH 7.2 to 7.4) to obtain a solution with a concentration of 18.3 ng/mL, and then 91.5-fold diluted with buffer (1×PBS containing 1 mM EDTA, 0.5% Triton X-100, 1 M urea, pH 7.2 to 7.4) to obtain a solution with a concentration of 0.2 ng/mL, and 8-point gradient dilution was performed using buffer (1×PBS containing 1 mM EDTA, 0.5% Triton X-100, 1 M urea, pH 7.2 to 7.4) with a final concentration of […].
1×PBS was pre-cooled, and after the incubation of the compound, the supernatant was removed, and then the plate was washed with 250 μL of pre-cooled 1×PBS per well, then 30 µL of cell lysate per well (1×PBS containing 1 mM EDTA, 0.5% Triton X-100, 6 M urea, 1 mM active sodium orthovanadate, 2.5 mM sodium pyrophosphate, lx protease inhibitor, pH 7.2 to 7.4) was added, and lysed on ice for 15 minutes;
after cell was lysed in the cell plate, the cell lysate was 6-fold diluted with 150 μL of buffer (1×PBS containing 1 mM EDTA, 0.5% Triton X-100, pH 7.2 to 7.4) per well, and the mixture was mixed evenly by blowing with a multi-channel pipette, and 100 μL of solution per well was transferred to the ELISA plate;
the human total estrogen receptor a detection antibody stock solution (14.4 μg/mL) was 36-fold diluted with buffer (1×PBS containing 1% bovine serum albumin), and the final concentration of the detection antibody was 400 ng/mL, and 100 μL of the solution per well was transferred to the ELISA plate and incubated at 25° C. for 2 hours;
Data analysis: A, B, C and D in the four-parameter equation y=(A−D)/[1+(x/C)^B]+D were calculated according to the original data of the standard curve, wherein, y was the original OD450 value, x was the concentration of the corresponding point of the standard curve. According to the four-parameter equation and the OD450 reading of the original data of the sample, the concentration of ERα at the corresponding point was calculated. The equation (Sample−Min)/(Max−Min)×100% was used to convert the original data into inhibition rate, and the IC50 value could be obtained by curve fitting with four parameters (obtained by “log (inhibitor) vs. response—variable slope” mode in GraphPad Prism).
Max wells: Positive control wells reading at 100 nM Fulvestrant-treated cell wells […]

The test system of series [4] is MCF-7 cells. Description: MCF-7 cell proliferation inhibition experiment. The format is cell-based. As to conditions: Homo sapiens, MCF7, 144 h, 6 days incubation, CellTiter-Glo, read-out: Anti-cell proliferation activity of MCF-7. How it is done:
(1) MCF-7 Cell Proliferation Inhibition Experiment:
EMEM culture medium was purchased from Wisent, and fetal bovine serum was purchased from Biosera, Promega CellTiter-Glo reagent. MCF-7 cell line was purchased from Cell Bank of Type Culture Collection of Chinese Academy of Sciences. Nivo5 multi-label analyzer (PerkinElmer).
MCF-7 cells were seeded in a white 384-well plate with 600 cells per well in every […] of the cell suspension. The cell plate was placed in a carbon dioxide incubator and cultured overnight.
The test compound was diluted to the 10th concentration with a multi-channel pipette, and the compound concentration was 1 mM, 400 μM, and 80 μM, and then diluted to the 10th concentration of 1 nM in turn, and a double-duplicate experiment was set-up. 47.5 μL of culture medium was added to the middle plate, then 2.5 μL of gradient dilution compound per well was transferred to the middle plate according to the corresponding position, and 5 μL of the mixture per well was mixed evenly and transferred to the cell plate. The cell plate was placed in a carbon dioxide incubator and cultured for 6 days.
After 6 days of co-incubation of the compound, the culture medium was removed by centrifugation, and 25 μL of Promega CellTiter-Glo reagent was added to each well of the cell plate, and incubated at room temperature for 10 minutes to stabilize the luminescence signal. PerkinElmer Nivo multi-marker analyzer reading was used. In the experiment, the reading of 2 μM positive reference compound H3B-6545(US20160347717A1) was used as a positive control to participate in data calculation.
The equation % Inhibition=((RFUCmpd−AVER(RFUNeg.ctrl))/((AVER(RFUPos.Ctrl)−AVER(RFUNeg.ctrl))×100% was used to convert the original data into inhibition rate, and the compound curve was fitted by log(inhibitor)vs. response-Variable slope of Graphpad Prism 5. The IC50 value was calculated by the software through the formula Y=Bottom+(Top−Bottom)/(1+10^((Log IC50−X)*HillSlope)).
(In general: Cellular ATP, detected with luciferase, serves as a proxy for viable cell number.)

For series [5], the system named is rat uterus. Description: Uterine wet weight inhibition experiment in rat cubs. It counts as in vivo. The following applies: 18-day-old female rat pups, oral, three consecutive days; compounds 25 mg/kg, Ethinylestradiol 0.1 mg/kg. On the procedure: The purpose of this experiment was to evaluate the effect of the compound of the present disclosure on uterine growth inhibition in 18 to 21-day-old female rat pups (provided by Beijing Vital River Laboratory Animal Technology Co., Ltd.). In this experiment, 18-day-old female rat pups were orally administered the compound of the present disclosure at a dose of 25 mg/kg for three consecutive days, and the control group was orally administered 0.1 mg/kg of Ethinylestradiol for three consecutive days, and the blank group was not given any drug except the corresponding solvent. Three days after the administration, the rats were sacrificed, and the weight of the rat uterus was weighed to observe the effect of the test drug on the growth inhibition of the rat uterus. Inhibition rate=100×[(VehicleEE−Cpd)/(VehicleEE−Vehicle)], VehicleEE was the wet weight of the rat uterus in the control group (administered 0.1 mg/kg of Ethinylestradiol orally); Cpd was the wet weight of the rat uterus in administration group; Vehicle was the wet weight of the rat uterus in the blank group.

The conditions of series [6]: in vivo, cited from earlier work.
Series [7] deals with breast cancer. The following applies: intramuscular injection; cited from earlier work.

We go through ten molecules from US12415799B2, “Indazole-fused cyclic compound” (Zhejiang Yangli Pharmaceutical Technology Co., Ltd., priority 2020, dated 2025).

Where two headings read alike, the source gives them in different places.

ERα, sequence (P03372 whole entry): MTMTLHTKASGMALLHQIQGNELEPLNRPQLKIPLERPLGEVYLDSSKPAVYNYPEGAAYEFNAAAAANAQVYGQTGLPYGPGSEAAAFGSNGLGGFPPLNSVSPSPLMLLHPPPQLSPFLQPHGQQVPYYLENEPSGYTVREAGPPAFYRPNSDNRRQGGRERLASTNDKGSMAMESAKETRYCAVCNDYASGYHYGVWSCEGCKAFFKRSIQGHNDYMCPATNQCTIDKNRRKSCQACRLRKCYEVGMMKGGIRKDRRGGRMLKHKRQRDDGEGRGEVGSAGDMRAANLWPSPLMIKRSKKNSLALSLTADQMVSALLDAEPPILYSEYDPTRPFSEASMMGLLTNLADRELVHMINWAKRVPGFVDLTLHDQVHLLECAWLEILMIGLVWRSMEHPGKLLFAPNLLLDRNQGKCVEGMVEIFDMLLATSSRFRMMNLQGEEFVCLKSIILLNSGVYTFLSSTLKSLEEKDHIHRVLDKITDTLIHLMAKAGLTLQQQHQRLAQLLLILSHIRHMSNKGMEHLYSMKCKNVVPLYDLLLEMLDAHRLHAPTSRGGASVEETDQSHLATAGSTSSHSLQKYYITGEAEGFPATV
CYP3A4, sequence (P08684 whole entry): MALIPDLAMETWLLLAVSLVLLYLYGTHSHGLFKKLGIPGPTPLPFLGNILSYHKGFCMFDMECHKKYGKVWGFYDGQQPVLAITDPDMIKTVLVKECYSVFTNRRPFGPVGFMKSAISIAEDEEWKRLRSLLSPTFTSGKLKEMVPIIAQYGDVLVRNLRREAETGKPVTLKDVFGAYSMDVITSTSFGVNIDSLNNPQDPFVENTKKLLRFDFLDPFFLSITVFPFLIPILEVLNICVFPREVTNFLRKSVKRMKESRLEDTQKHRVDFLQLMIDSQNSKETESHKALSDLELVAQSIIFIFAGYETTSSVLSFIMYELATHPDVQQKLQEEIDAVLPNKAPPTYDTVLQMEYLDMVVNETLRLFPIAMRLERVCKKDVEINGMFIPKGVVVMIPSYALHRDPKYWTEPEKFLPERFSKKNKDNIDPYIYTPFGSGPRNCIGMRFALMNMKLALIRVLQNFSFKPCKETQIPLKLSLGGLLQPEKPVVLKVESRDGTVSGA
CYP1A2, sequence (P05177 whole entry): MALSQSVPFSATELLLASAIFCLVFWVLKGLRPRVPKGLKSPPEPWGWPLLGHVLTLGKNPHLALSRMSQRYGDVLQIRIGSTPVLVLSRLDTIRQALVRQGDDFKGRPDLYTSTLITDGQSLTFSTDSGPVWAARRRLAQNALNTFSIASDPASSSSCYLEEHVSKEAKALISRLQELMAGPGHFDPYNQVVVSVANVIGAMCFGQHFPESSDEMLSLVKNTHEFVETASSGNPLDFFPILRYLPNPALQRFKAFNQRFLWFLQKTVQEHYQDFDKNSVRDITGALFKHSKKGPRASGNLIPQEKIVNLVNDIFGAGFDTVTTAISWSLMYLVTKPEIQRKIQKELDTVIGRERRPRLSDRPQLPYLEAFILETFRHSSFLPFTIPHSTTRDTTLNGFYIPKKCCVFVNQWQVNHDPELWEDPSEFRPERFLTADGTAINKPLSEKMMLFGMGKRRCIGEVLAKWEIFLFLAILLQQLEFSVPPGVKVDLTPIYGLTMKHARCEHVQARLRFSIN

Turning to `N#Cc1cc(C2=C(CC(F)(F)F)CCCc3c2ccc2[nH]nc(F)c32)ncc1NC1CN(CCCF)C1` [Compound 10], the IC50 in series [1] (human, 10 min) was 47500 nM; in series [2] it was 30800 nM.

Consider `FCCCN1CC(Nc2cnc(C3=C(CC(F)(F)F)CCCc4c3ccc3[nH]ncc43)cn2)C1` [Compound 5], for which the DC50 in series [3] was determined as 0.017 nM. Further, the IC50 in series [4] came out at 0.19 nM.

Turning to `C#C[C@]1(O)CC[C@H]2[C@@H]3CCc4cc(O)ccc4[C@H]3CC[C@@]21C` [Ethinylestradiol, reference compound], in series [5], the Inhibition rate is 0%, the “Ratio of uterine wet weight/rat body weight” value came out at 2.45 mg/g and the Uterine wet weight is listed as 132.2 mg.

For the molecule `FCCCN1CC(Nc2cnc(C3=C(CC(F)(F)F)CCCc4c3ccc3[nH]ncc43)nc2)C1` [Compound 7], the DC50 in series [3] worked out at 0.4 nM.

Turning to `C[C@]12CC[C@@H]3c4ccc(O)cc4C[C@@H](CCCCCCCCC[S+]([O-])CCCC(F)(F)C(F)(F)F)[C@H]3[C@@H]1CC[C@@H]2O` (some centres unmarked) [fulvestrant, Fulvestrant], in series [6] (po), the oral bioavailability entry is “close to zero”. Besides, in series [6], the blood clearance rate entry is given as “high”. Besides, the “breast cancer patients showing clinical response” value in series [7] was “about 50%”.

With `FCCCN1CC(Nc2cnc(C3=C(CC(F)(F)F)CCCc4c3ccc3[nH]nc(F)c43)cn2)C1` [Compound 8], the DC50 in series [3] was found to be 0.37 nM. The IC50 was over 50000 nM in series [1], 42100 nM in series [2] and 0.7 nM in series [4].

Consider `OCCCC1=C(c2ccc(OC3CN(CCCF)C3)cc2)c2ccc3[nH]ncc3c2CCC1` [Formate of 1], for which the DC50 in series [3] was determined as 0.25 nM. Also, the IC50 in series [4] was 0.42 nM.

Regarding `FCCCN1CC(Nc2ncc(C3=C(CC(F)(F)F)CCCc4c3ccc3[nH]ncc43)cn2)C1` [Compound 4], the DC50 in series [3] was 0.17 nM. The IC50 in series [1] (human, 10 min) is over 50000 nM; in series [2], 11100 nM.

In the case of `FCCCN1CC(Nc2ccc(C3=C(CC(F)(F)F)CCCc4c3ccc3[nH]ncc43)nc2)C1` [Compound 6], in series [3], the DC50 came to 0.42 nM. In addition, the IC50 in series [4] was determined as 0.31 nM.

`FCCCN1CC(Nc2cnc(C3=C(CC(F)(F)F)CCOc4c3ccc3[nH]ncc43)cn2)C1` [Compound 3]: the DC50 in series [3] amounted to 0.45 nM. Further, the IC50 in series [1] (human, 10 min) was over 50000 nM; in series [2], 13600 nM; in series [4], 1.37 nM.
